Test [1] deals with IRAK4 enzyme (Homo sapiens (Human), UniProt Q9NWZ3). In words: biochemical. Type of test: biochemical. The settings on record: IRAK4 enzyme, TR-FRET (HTRF), 500 μM ATP.
The test system of test [2] is TNFα. Nature of the test: cells. As to conditions: Homo sapiens, Monocyte, LPS-stimulated human monocytes, TNFα content; read-out: EC50 TNF. The test is classed as cell-based, human.

IRAK4 enzyme, sequence (Q9NWZ3 whole entry): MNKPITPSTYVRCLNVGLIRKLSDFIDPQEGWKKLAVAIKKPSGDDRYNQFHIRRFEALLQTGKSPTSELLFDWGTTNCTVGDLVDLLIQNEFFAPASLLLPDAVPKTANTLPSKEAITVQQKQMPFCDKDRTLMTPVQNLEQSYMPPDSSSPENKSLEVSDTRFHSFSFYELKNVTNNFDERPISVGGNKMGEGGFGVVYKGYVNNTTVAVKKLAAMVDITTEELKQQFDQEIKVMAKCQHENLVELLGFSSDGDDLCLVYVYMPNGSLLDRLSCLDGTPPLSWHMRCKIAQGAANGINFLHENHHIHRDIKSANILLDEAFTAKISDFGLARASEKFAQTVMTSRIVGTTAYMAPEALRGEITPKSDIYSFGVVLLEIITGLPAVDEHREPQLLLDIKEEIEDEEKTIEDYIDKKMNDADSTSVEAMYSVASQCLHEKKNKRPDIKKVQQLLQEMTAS

`CC(=O)NC[C@H]1C[C@H](Nc2cc(-c3ccc4cc(C#N)cnn34)ncc2C(=O)NC[C@@H](F)C(C)(C)O)C1` [Example 544, 4-(((1r,3R)-3-(acetamidomethyl)cyclobutyl)amino)-6-(3-cyanopyrrolo[1,2-b]pyridazin-7-yl)-N-((R)-2-fluoro-3-hydroxy-3-methylbutyl)nicotinamide]: inhibition in test [1] was half-maximal at 0.001 µM (IC50). In addition, the EC50 (commonly the concentration at which the effect is half-maximal) in test [2] is 0.081 µM.
On to `COC(=O)NC[C@H]1C[C@H](Nc2cc(-c3ccc4cc(C#N)cnn34)ncc2C(=O)NC[C@@H](F)C(C)(C)O)C1` [Example 545, Methyl (((1R,3r)-3-((2-(3-cyanopyrrolo[1,2-b]pyridazin-7-yl)-5-(((R)-2-fluoro-3-hydroxy-3-methylbutyl)carbamoyl)pyridin-4-yl)amino)cyclobutyl)methyl)carbamate], for which the half-inhibitory concentration (IC50) (usually the concentration that inhibits the measured activity by half) in test [1] was less than 0.001 µM. Moreover, in test [2], the half-maximal effective concentration (EC50) was 0.005 µM.
Consider `CC(=O)NCC12CC(Nc3cc(-c4ccc5cc(C#N)cnn45)ncc3C(=O)NC[C@@H](F)C(C)(C)O)(C1)C2` [Example 546, (R)-4-((3-(acetamidomethyl)bicyclo[1.1.1]pentan-1-yl)amino)-6-(3-cyano-pyrrolo[1,2-b]pyridazin-7-yl)-N-(2-fluoro-3-hydroxy-3-methylbutyl) nicotinamide], for which, in test [1], the IC50 came out at 0.001 µM. For the same molecule, the EC50 in test [2] came out at 0.09 µM.
Taken in the same sequence, the figures for `COC(=O)NCC12CC(Nc3cc(-c4ccc5cc(C#N)cnn45)ncc3C(=O)NC[C@@H](F)C(C)(C)O)(C1)C2` [Example 547, (R)-methyl ((3-((2-(3-cyanopyrrolo[1,2-b]pyridazin-7-yl)-5-((2-fluoro-3-hydroxy-3-methylbutyl)carbamoyl)pyridin-4-yl)amino)bicyclo[1.1.1]pentan-1-yl)methyl)carbamate] were less than 0.001 µM and 0.028 µM.
The like results for `CC(C)(O)[C@H](F)CNC(=O)c1cnc(-c2ccc3cc(C#N)cnn23)cc1N[C@H]1C[C@H](C(C)(C)O)C1` [Example 548, 6-(3-cyanopyrrolo[1,2-b]pyridazin-7-yl)-N-((R)-2-fluoro-3-hydroxy-3-methylbutyl)-4-(((1r,3R)-3-(2-hydroxypropan-2-yl)cyclobutyl)amino) nicotinamide] were, in that order, 0.001 µM and 0.022 µM.
The like results for `CC(C)(C)OC(=O)NC[C@H]1C[C@H](Nc2cc(-c3ccc4cc(C#N)cnn34)ncc2C(=O)NC[C@@H](F)C(C)(C)O)C1` [Example 549, tert-butyl (((1R,3r)-3-((2-(3-cyanopyrrolo[1,2-b]pyridazin-7-yl)-5-(((R)-2-fluoro-3-hydroxy-3-methylbutyl)carbamoyl)pyridin-4-yl)amino)cyclobutyl)methyl)carbamate] were, in that order, 0.002 µM and 0.149 µM.
The molecule `CC(C)(C)OC(=O)NCC12CC(Nc3cc(-c4ccc5cc(C#N)cnn45)ncc3C(=O)NC[C@@H](F)C(C)(C)O)(C1)C2` [Example 550, (R)-tert-butyl ((3-((2-(3-cyanopyrrolo[1,2-b]pyridazin-7-yl)-5-((2-fluoro-3-hydroxy-3-methylbutyl)carbamoyl)pyridin-4-yl)amino)bicyclo[1.1.1]pentan-1-yl)methyl)carbamate] returned an IC50 in test [1] of 0.002 µM. The half-maximal effective concentration (EC50) in test [2] came to 0.364 µM.
Taken in the same sequence, the figures for `CC(C)Nc1cc(-c2ccc3cc(C#N)cnn23)ncc1C(=O)NCC(F)(F)CN` [Example 552, N-(3-amino-2,2-difluoro-propyl)-6-(3-cyano-pyrrolo[1,2-b]pyridazin-7-yl)-4-(isopropyl-amino)nicotinamide] were 0.007 µM and 1.16 µM.
Taken in the same sequence, the figures for `COC(=O)NC(C)(CCNC(=O)c1cnc(-c2ccc3cc(C#N)cnn23)cc1NC(C)C)C(F)F` (stereo not shown) [Example 553, methyl (4-(6-(3-cyano-pyrrolo[1,2-b]pyridazin-7-yl)-4-(isopropylamino)nicotinamido)-1,1-difluoro-2-methylbutan-2-yl)carbamate] were 0.002 µM and 0.183 µM.
Regarding `CC(C)Nc1cc(-c2ccc3cc(C#N)cnn23)ncc1C(=O)NCC(F)(F)CNC(=O)OC(C)(C)C` [Example 554, tert-butyl (3-(6-(3-cyano-pyrrolo[1,2-b]pyridazin-7-yl)-4-(isopropylamino)nicotinamido)-2,2-difluoropropyl)carbamate], in test [1], the IC50 worked out at 0.035 µM. The EC50 in test [2] is 0.439 µM.
Taken in the same sequence, the figures for `CC(C)Nc1cc(-c2ccc3cc(C#N)cnn23)ncc1C(=O)NCCC(C)(N)C(F)F` (stereo not shown) [Example 555, N-(3-amino-4,4-difluoro-3-methylbutyl)-6-(3-cyano-pyrrolo[1,2-b]pyridazin-7-yl)-4-(isopropylamino) nicotinamide] were 0.001 µM and 0.095 µM.
The like results for `COC(=O)NC[C@H]1CC[C@H](Nc2cc(-c3ccc4cc(C#N)cnn34)ncc2C(=O)NC[C@@H](F)C(C)(C)O)CC1` [Example 556, methyl (((1R,4r)-4-((2-(3-cyanopyrrolo[1,2-b]pyridazin-7-yl)-5-(((R)-2-fluoro-3-hydroxy-3-methylbutyl)carbamoyl)pyridin-4-yl)amino)cyclo-hexyl)methyl)carbamate] were, in that order, 0.001 µM and 0.018 µM.
Taken in the same sequence, the figures for `CC(=O)NC[C@H]1CC[C@H](Nc2cc(-c3ccc4cc(C#N)cnn34)ncc2C(=O)NC[C@@H](F)C(C)(C)O)CC1` [Example 557, 4-(((1r,4R)-4-(acetamidomethyl)cyclo-hexyl)amino)-6-(3-cyano-pyrrolo[1,2-b]pyridazin-7-yl)-N-((R)-2-fluoro-3-hydroxy-3-methylbutyl) nicotinamide] were less than 0.001 µM and 0.027 µM.
For `CC(C)(O)[C@H](F)CNC(=O)c1cnc(-c2ccc3cc(C#N)cnn23)cc1N[C@H]1CC[C@H](CN)CC1` [Example 558, 4-(((1r,4R)-4-(amino-methyl)cyclohexyl)amino)-6-(3-cyano-pyrrolo[1,2-b]pyridazin-7-yl)-N-((R)-2-fluoro-3-hydroxy-3-methylbutyl) nicotinamide], the half-maximal inhibitory concentration (IC50) in test [1] was less than 0.001 µM. Besides, the concentration for a half-maximal effect (EC50) in test [2] is 0.19 µM.
Taken in the same sequence, the figures for `CC(N)(CCNc1cc(-c2ccc3cc(C#N)cnn23)ncc1C(=O)NC[C@@H](F)C(C)(C)O)C(F)F` (stereo partly drawn) [Example 559, 4-((3-amino-4,4-difluoro-3-methylbutyl)amino)-6-(3-cyanopyrrolo[1,2-b]pyridazin-7-yl)-N-((R)-2-fluoro-3-hydroxy-3-methylbutyl)nicotinamide] were 0.001 µM and 0.078 µM.
Taken in the same sequence, the figures for `CC(C)(O)[C@H](F)CNC(=O)c1cnc(-c2ccc3cc(C#N)cnn23)cc1NC[C@@H](F)C(C)(C)O` [Example 560, 6-(3-cyanopyrrolo[1,2-b]pyridazin-7-yl)-N-((R)-2-fluoro-3-hydroxy-3-methylbutyl)-4-(((R)-2-fluoro-3-hydroxy-3-methylbutyl)amino) nicotinamide] were less than 0.001 µM and 0.083 µM.
The like results for `CC(C)Nc1cc(-c2ccc3cc(C#N)cnn23)ncc1C(=O)NCCC(C)(N)C(F)(F)F` (stereo not shown) [Example 561, N-(3-amino-4,4,4-trifluoro-3-methylbutyl)-6-(3-cyano-pyrrolo[1,2-b]pyridazin-7-yl)-4-(isopropylamino) nicotinamide] were, in that order, 0.001 µM and 0.121 µM.

(Values after patent US10336762B2 (priority 2017, dated 2019).)
